Among the data in ChEMBL document CHEMBL2311472, “Discovery and optimization of potent broad-spectrum arenavirus inhibitors derived from benzimidazole and related heterocycles” (Bioorg Med Chem Lett, 2013) are EC50 values, retold here.

A word on the EC50: it is the concentration needed to bring the measured effect to its halfway point. Read a low EC50 as a more potent agent.

The subject of test [1] is Lassa virus. The test can be described thus: Antiviral activity against Lassa virus by pseudo-type antiviral assay. It is filed as functional, organism-based. To be noted: Mammarenavirus lassaense.
The subject of test [2] is Sabia virus. Kind of test: Antiviral activity against Sabia virus. It counts as functional.
The test system of test [3] is Machupo mammarenavirus. The test can be described thus: Antiviral activity against Machupo virus. It is filed as functional. The settings on record: Mammarenavirus machupoense.
For test [4], the system named is Guanarito virus. The test can be described thus: Antiviral activity against Guanarito virus. To be noted: Mammarenavirus guanaritoense. It is filed as functional.
For test [5], the system named is Junin virus. Kind of test: Antiviral activity against Junin virus. It counts as functional, organism-based. To be noted: Mammarenavirus juninense.

A value given as a limit tells only on which side of the number the result lay.

`CCOc1ccc(-n2cnc3cc(NCc4ccc(CC)cc4)cnc32)cc1CN` yielded a concentration for a half-maximal effect (EC50) in test [1] of 58 nM.

`CCOc1ccc(-n2cnc3nc(NCc4ccc(CC)cc4)ccc32)cc1`: in test [1], the EC50 is 6.8 nM.

The compound `CCc1ccc(CNc2cnc3c(c2)ncn3-c2ccc(O)cc2)cc1` came in with an EC50 in test [1] of 19 nM.

Turning to `CCOc1ccc(-n2c(N)nc3cc(NCc4ccc(CC)cc4)ccc32)cc1`, the EC50 in test [1] was 29 nM.

On to `CCOc1ccc(-n2ccc3cc(NCc4ccc(CC)cc4)cnc32)cc1`, for which the EC50 in test [1] came out at 25 nM.

As to `CCc1ccc(CNc2cnc3c(c2)ncn3-c2ccc(NC(C)=O)cc2)cc1`, the midpoint of the response in test [1], the EC50, lay at 11 nM.

With `CCOc1ccc(-n2cnc3cc(/N=C/c4ccc(CC)cc4)cnc32)cc1`, the EC50 in test [1] stood at 4300 nM.

In test [1], `CCOc1ccc(-n2cnc3cc(NCc4ccc(CC)cc4)cc(C(=O)O)c32)cc1` registered a half-maximal effective concentration (EC50) of over 50000 nM.

In test [1], `CCOc1ccc(-n2c(O)nc3cc(NCc4ccc(CC)cc4)ccc32)cc1` returned a concentration for a half-maximal effect (EC50) of 1800 nM.

In turn, `CCCc1nc2cc(NCc3ccc(CC)cc3)ccc2n1-c1ccc(OCC)cc1` yielded an EC50 in test [1] of 170 nM.

`CCOc1ccc(-n2c(C)nc3cc(NCc4ccc(CC)cc4)ccc32)cc1` came in with an EC50 in test [1] of 1.9 nM.

For `CCOc1ccc(-n2c(C(N)=O)nc3cc(NCc4ccc(CC)cc4)cnc32)cc1`, the EC50 in test [1] came out at 4.4 nM.

Regarding `CCOc1ccc(-n2c(C#N)nc3cc(NCc4ccc(CC)cc4)ccc32)cc1`, in test [1], a half-maximal effect (EC50) was put at 1.6 nM.

With `COc1ccc(-n2ncc3cc(NCc4ccc(C(C)C)cc4)ccc32)cc1`, a half-maximal response in test [1] (EC50) required 130 nM. This EC50 lies about 81-fold higher than the previous one.

`CCOc1ccc(-n2cnc3cc(NCc4ccc(CC)c(N(C)C)c4)cnc32)cc1` registered an EC50 in test [1] of 5.9 nM. Compared with the last compound, the EC50 is about 22-fold lower.

The compound `CCOc1ccc(-n2cnc3cc(NCc4ccc(CC)cc4)cnc32)cn1` showed a concentration for a half-maximal effect (EC50) in test [1] of 9 nM.

In the case of `CCOc1ccc(-n2c(C(=O)O)nc3cc(NCc4ccc(CC)cc4)cnc32)cc1`, the EC50 in test [1] came out at 0.16 nM.

Take `CCc1ccc(CNc2cnc3c(c2)ncn3-c2ccc(OCCN(C)C)cc2)cc1`: in test [1], the response was half-maximal at 80 nM (EC50).

Compound `CCOc1ccc(-n2cnc3cc(NCc4ccc(CC)cc4)cc(N)c32)cc1` registered an EC50 in test [1] of 620 nM.

In test [1], `CCOc1ccc(-c2cnc3cc(NCc4ccc(CC)cc4)ccn23)cc1` gave an EC50 of 9.3 nM.

Consider `CCOc1ccc(-n2cnc3cc(NCc4ccc(CC)cc4)cc(C(=O)OC)c32)cc1`, for which the midpoint of the response in test [1], the EC50, lay at 220 nM.

In test [1], `CCOc1ccc(Cn2cnc3cc(NCc4ccc(CC)cc4)cnc32)cc1` returned an EC50 of 1600 nM. This EC50 is about 7.3-fold higher than that of the compound before.

Turning to `CCOc1ccc(-n2cnc3cc(NCc4ccc(CC)cc4)cnc32)nc1`, the EC50 in test [1] was 0.98 nM.

The compound `CCOc1ccc(-n2c(C(=O)O)nc3cc(NCc4ccc(CC)cc4)ccc32)cc1` gave a half-maximal effective concentration (EC50) in test [1] of 1.5 nM.

With `CCOc1ccc(-n2cnc3cc(NCc4ccc(CC)cc4)cnc32)c(CN)c1`, a half-maximal response in test [1] (EC50) required 1500 nM.

As for `CCOc1ccc(-n2cnc3cc(NCc4ccc(CC)cc4)cnc32)cc1`, the EC50 in test [2] is 54 nM; in test [3], 28 nM; in test [1] it was 0.16 nM; in test [4] it was 3.5 nM; in test [5], 7.9 nM.

For the compound `COc1ccc(-n2cnc3cc(NCc4ccc(C(C)C)cc4)ccc32)cc1`, the EC50 in test [2] turned out to be 21 nM; in test [3], 3.1 nM; in test [1], 1.4 nM; in test [4] it was 0.44 nM; in test [5], 0.62 nM.

On to `CCOc1ccc(-n2nnc3cc(NCc4ccc(CC)cc4)cnc32)cc1`, for which the EC50 in test [2] was 93 nM; in test [3], 81 nM; in test [1], 0.87 nM; in test [4] it was 7.7 nM; in test [5], 14 nM.

`CCOc1ccc(-n2cnc3cc(NCc4ccc(CC)cc4)cnc32)cc1N(C)C`: it took 250 nM to reach a half-maximal effect in test [1] (EC50).

For the compound `CCOc1ccc(-n2cnc3cc(NCCCc4ccc(CC)cc4)cnc32)cc1`, the EC50 in test [1] amounted to 210 nM.

In test [1], `CCOc1ccc(-n2nnc3cc(NCc4ccc(CC)cc4)ccc32)cc1` showed an EC50 of 6.1 nM.

As to `CCOc1ccc(-c2c[nH]c3cc(NCc4ccc(CC)cc4)ccc23)cc1`, the EC50 in test [2] turned out to be 3.9 nM; in test [3] it was 40 nM; in test [1], 13 nM; in test [5] it was 12 nM.

In test [1], `CCOc1ccc(-n2cnc3cc(NCCc4ccc(CC)cc4)cnc32)cc1` showed an EC50 of 65 nM.

`CCOc1ccc(-n2ccc3cc(NCc4ccc(CC)cc4)ccc32)cc1` gave an EC50 in test [1] of 69 nM.

Turning to `CCOc1ccc(-n2cnc3cc(NCc4ccc(CC)cc4)ccc32)cc1`, in test [1], the concentration for a half-maximal effect (EC50) came to 1.5 nM. Against the preceding compound, the EC50 is about 46-fold lower.

The compound `CCOc1ccc(-n2c(C(N)=O)nc3cc(NCc4ccc(CC)cc4)ccc32)cc1` returned an EC50 in test [1] of 9.2 nM.

In test [1], `CCOc1ccc(-n2cnc3cc(NCc4ccc(CC)c(CN)c4)cnc32)cc1` returned an EC50 of 26 nM.

`CCc1ccc(CNc2cnc3c(c2)ncn3-c2ccc(OCCCO)cc2)cc1` came in with an EC50 in test [1] of 13 nM.
